Laboratory results reported in ChEMBL document CHEMBL3885881, “DrugMatrix”.
“And” between values parts separate entries of the source, which are not always exact repeats. Identical values can stand only once.

Species on record: Rattus norvegicus
Experiment: DrugMatrix - Regimen: Daily Repeat
Assay type: toxicity, organism-based, Sprague-Dawley
Design: regimen Daily Repeat, gender Male, age 6-8 weeks
Conditions: in vivo, vehicle 100 % SALINE; for ALANINE AMINOTRANSFERASE / ALBUMIN / ALKALINE PHOSPHATASE / ASPARTATE AMINOTRANSFERASE / BLOOD UREA NITROGEN / CARBON DIOXIDE / CHLORIDE / CHOLESTEROL / CREATINE PHOSPHOKINASE / CREATININE / GLUCOSE / LACTATE DEHYDROGENASE / LIPASE / PHOSPHORUS / POTASSIUM / SODIUM / TOTAL BILIRUBIN / TOTAL PROTEIN / URIC ACID: tissue Plasma
[1] = ip, 2 mg/kg, 120 h, tissue Blood, route intraperitoneal, dose level High, time 5 day
[2] = ip, 2 mg/kg, 120 h, route intraperitoneal, dose level High, time 5 day
[3] = ip, 2 mg/kg, […], tissue Blood, route intraperitoneal, dose level High, time 14 day
[4] = ip, 2 mg/kg, […], tissue Blood, route intraperitoneal, dose level High, time 28 day
[5] = ip, 2 mg/kg, […], route intraperitoneal, dose level High, time 14 day
[6] = ip, 2 mg/kg, […], route intraperitoneal, dose level High, time 28 day
[7] = po, 0 mg/kg, 72 h, tissue Blood, route oral GAVAGE, dose level Control, time 3 day

In the case of LEAD (II) ACETATE, the BASOPHIL [1] is reported as 0.92% and 0.35%, the EOSINOPHIL [1] is reported as 1.12% and 0.5% and the “ERYTHROCYTE COUNT” value [1] is reported as 7.54 x10E6/uL and 7.26 x10E6/uL. The HEMATOCRIT [1] was 45.88% and 47.9%, the HEMOGLOBIN [1] was 15 G/DL and 15.17 G/DL and the “LEUKOCYTE COUNT” value [1] was 13.21 x10E3/uL and 9.67 x10E3/uL. The LYMPHOCYTE [1] was 76.12% and 82.6%, the “MEAN CORPUSCULAR HEMOGLOBIN” value [1] was 20.9 pg and the “MEAN CORPUSCULAR HEMOGLOBIN CONCENTRATION” value [1] was 32.66 G/DL and 31.67 G/DL. The “MEAN CORPUSCULAR VOLUME” value [1] was 66 fL, the MONOCYTE [1] was 1.94% and 1.57% and the NEUTROPHIL [1] was 19.32% and 13.95%. The “PLATELET COUNT” value [1] was 1605.4 x10E3/uL and 1679.25 x10E3/uL, the “ALANINE AMINOTRANSFERASE” value [2] was 30.6 u/L and 16 u/L and the ALBUMIN [2] was 3.32 G/DL and 4.1 G/DL. For the same substance, the “ALKALINE PHOSPHATASE” value [2] was 221 u/L and 290.75 u/L, the “ASPARTATE AMINOTRANSFERASE” value [2] was 83.2 u/L and 78.25 u/L and the “BLOOD UREA NITROGEN” value [2] was 13.8 mg/dL and 16.75 mg/dL. For the same substance, the “CARBON DIOXIDE” value [2] was 24 mmol/L, the CHLORIDE [2] was 109.2 MEQ/L and 108.75 MEQ/L and the CHOLESTEROL [2] was 57 mg/dL and 58.25 mg/dL. The “CREATINE PHOSPHOKINASE” value [2] was 338.6 u/L and 224.25 u/L, the CREATININE [2] was 0.54 mg/dL and 0.4 mg/dL and the GLUCOSE [2] was 117.4 mg/dL and 114.75 mg/dL. For the same substance, the “LACTATE DEHYDROGENASE” value [2] was 76.2 u/L, the LIPASE [2] was 36 u/L and 14.25 u/L and the PHOSPHORUS [2] was 10.02 mg/dL and 13.3 mg/dL. For the same substance, the POTASSIUM [2] was 6.38 MEQ/L and 6.15 MEQ/L, the SODIUM [2] was 151.2 MEQ/L and 152.25 MEQ/L and the “TOTAL BILIRUBIN” value [2] was 0.16 mg/dL and 0.3 mg/dL. For the same substance, the “TOTAL PROTEIN” value [2] was 5.8 G/DL and 6.3 G/DL, the “URIC ACID” value [2] was 1.08 mg/dL and 2.1 mg/dL and the ABSOLUTE BASOPHIL [3] was 88 cells/µL. It also gave an ABSOLUTE EOSINOPHIL [3] of 74 cells/µL, an ABSOLUTE LYMPHOCYTE [3] of 8320 cells/µL and an ABSOLUTE MONOCYTE [3] of 390 cells/µL. The ABSOLUTE SEGMENTED NEUTROPHIL [3] was 3420 cells/µL, the HEMOGLOBIN [3] was 14.2 G/DL and the “MEAN CORPUSCULAR VOLUME” value [3] was 59.1 fL. The ABSOLUTE BASOPHIL [4] was 93 cells/µL, the ABSOLUTE EOSINOPHIL [4] was 130 cells/µL and the ABSOLUTE LYMPHOCYTE [4] was 9520 cells/µL. It also gave an ABSOLUTE MONOCYTE [4] of 320 cells/µL, an ABSOLUTE SEGMENTED NEUTROPHIL [4] of 2680 cells/µL and a BASOPHIL [4] of 0.79%. The EOSINOPHIL [4] was 1.01%, the “ERYTHROCYTE COUNT” value [4] was 8.38 x10E6/uL and the HEMATOCRIT [4] was 46.51%. The HEMOGLOBIN [4] was 14.88 G/DL, the “LEUKOCYTE COUNT” value [4] was 12.81 x10E3/uL and the LYMPHOCYTE [4] was 74.22%. For the same substance, the “MEAN CORPUSCULAR HEMOGLOBIN” value [4] was 17.76 pg, the “MEAN CORPUSCULAR HEMOGLOBIN CONCENTRATION” value [4] was 32.02 G/DL and the “MEAN CORPUSCULAR VOLUME” value [4] was 55.46 fL. The MONOCYTE [4] was 2.51%, the NEUTROPHIL [4] was 20.93% and the “PLATELET COUNT” value [4] was 1429.8 x10E3/uL. For the same substance, the “CARBON DIOXIDE” value [5] was 26 mmol/L, the “TOTAL PROTEIN” value [5] was 5.9 G/DL and the “ALANINE AMINOTRANSFERASE” value [6] was 25.8 u/L. The ALBUMIN [6] was 3.52 G/DL, the “ALKALINE PHOSPHATASE” value [6] was 146.4 u/L and the “ASPARTATE AMINOTRANSFERASE” value [6] was 80.7 u/L. The “BLOOD UREA NITROGEN” value [6] was 13.3 mg/dL, the CHLORIDE [6] was 109.1 MEQ/L and the CHOLESTEROL [6] was 54 mg/dL. For the same substance, the “CREATINE PHOSPHOKINASE” value [6] was 159.1 u/L, the CREATININE [6] was 0.58 mg/dL and the GLUCOSE [6] was 112.6 mg/dL. For the same substance, the “LACTATE DEHYDROGENASE” value [6] was 73.7 u/L, the LIPASE [6] was 26.7 u/L and the PHOSPHORUS [6] was 9.13 mg/dL. For the same substance, the POTASSIUM [6] was 6.27 MEQ/L, the SODIUM [6] was 150.5 MEQ/L and the “TOTAL BILIRUBIN” value [6] was 0.21 mg/dL. The “TOTAL PROTEIN” value [6] was 6.39 G/DL, the “URIC ACID” value [6] was 1.41 mg/dL and the “ABSOLUTE BASOPHIL” value [7] was 0 CELLS/uL. For the same substance, the “ABSOLUTE EOSINOPHIL” value [7] was 37 CELLS/uL, the “ABSOLUTE LYMPHOCYTE” value [7] was 12359.33 CELLS/uL and the “ABSOLUTE MONOCYTE” value [7] was 122.67 CELLS/uL. For the same substance, the “ABSOLUTE SEGMENTED NEUTROPHIL” value [7] was 847.67 CELLS/uL, the BASOPHIL [7] was 0% and the EOSINOPHIL [7] was 0.33%. The “ERYTHROCYTE COUNT” value [7] was 5.75 x10E6/uL, the HEMATOCRIT [7] was 36.08% and the “LEUKOCYTE COUNT” value [7] was 13.37 x10E3/uL. For the same substance, the “MEAN CORPUSCULAR HEMOGLOBIN CONCENTRATION” value [7] was 38.98 G/DL, the MONOCYTE [7] was 1% and the NEUTROPHIL [7] was 6.17%. The “NUCLEATED RED BLOOD CELLS” value [7] was 0.17 /100WBC and the “PLATELET COUNT” value [7] was 1202.17 x10E3/uL.
